{"source": "patent US7220864B2", "about": "“Dihydronaphthalene derivative compounds and agent comprising the derivative as active ingredient” (Ono Pharmaceutical Co., Ltd., priority 2000, dated 2007)", "key": {"human PPAR α": {"molecular_target": "T1, human PPAR α (Homo sapiens, UniProt Q07869)", "T1 construct": "expressed in transfected cells; host or cells: CV-1 cells", "T1 sequence (Q07869 167-468)": "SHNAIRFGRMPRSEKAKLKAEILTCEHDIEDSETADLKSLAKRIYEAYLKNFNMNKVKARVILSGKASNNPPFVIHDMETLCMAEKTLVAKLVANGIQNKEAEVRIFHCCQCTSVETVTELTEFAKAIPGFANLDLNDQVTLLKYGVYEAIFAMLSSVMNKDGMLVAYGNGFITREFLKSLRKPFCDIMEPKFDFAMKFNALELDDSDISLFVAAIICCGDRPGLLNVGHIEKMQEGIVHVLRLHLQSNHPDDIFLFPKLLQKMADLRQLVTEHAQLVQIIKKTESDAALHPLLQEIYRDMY", "assay": "Luciferase assay using human PPAR α (PPAR α agonistic activity)", "assay_type": "cell-based", "conditions": "compound 10 μM; CV-1 cells with Gal4-human PPAR α LBD chimera and luciferase reporter; luciferase activity of carbacyclin (10 μM) defined as 1.0"}, "human PPAR γ": {"molecular_target": "T2, human PPAR γ (Homo sapiens, UniProt P37231)", "T2 construct": "expressed in transfected cells; host or cells: CV-1 cells", "T2 sequence (P37231 204-505)": "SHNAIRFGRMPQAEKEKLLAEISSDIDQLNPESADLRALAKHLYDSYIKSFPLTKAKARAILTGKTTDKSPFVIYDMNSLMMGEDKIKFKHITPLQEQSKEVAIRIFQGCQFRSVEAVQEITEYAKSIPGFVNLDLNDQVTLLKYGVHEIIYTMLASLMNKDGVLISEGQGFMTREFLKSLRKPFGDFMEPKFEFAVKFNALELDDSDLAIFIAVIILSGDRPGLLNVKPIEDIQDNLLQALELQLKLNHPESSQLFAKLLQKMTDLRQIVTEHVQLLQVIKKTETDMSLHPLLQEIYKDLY", "assay": "Luciferase assay using human PPAR γ (PPAR γ agonistic activity)", "assay_type": "cell-based", "conditions": "compound 10 μM; CV-1 cells with Gal4-human PPAR γ LBD chimera and luciferase reporter; luciferase activity of troglitazone (10 μM) defined as 1.0"}}, "data": [{"smiles": "O=C(O)CCCCC1=CCCc2c(OCc3ccc4ccccc4n3)cccc21", "note": "[comprative compound]", "values": [{"measurement": "Relative Activity to a positive control compound (carbacyclin = 1)", "setting": "human PPAR α", "result": 0.01}, {"measurement": "Relative Activity to a positive control compound (troglitazone = 1)", "setting": "human PPAR γ", "result": 0.004}]}]}
